Assays:
Format in all cases: functional
M14 [1] = assay: Growth inhibition of human M14 cells incubated for 48 hrs by sulforhodamine B assay; details: M14, 48 h
M14 [2] = assay: Growth inhibition of human M14 cells assessed as cell growth at 0.1 uM incubated for 48 hrs by sulforhodamine B assay relative to control; details: M14, 48 h, read-out: Activity
COLO 205 = assay: Growth inhibition of human COLO205 cells assessed as cell growth at 0.1 uM incubated for 48 hrs by sulforhodamine B assay relative to control; details: COLO 205, 48 h, read-out: Activity
OVCAR-5 [3] = assay: Growth inhibition of human OVCAR5 cells assessed as cell growth at 1 uM incubated for 48 hrs by sulforhodamine B assay relative to control; details: OVCAR-5, 48 h, read-out: Activity
NCI/ADR-RES = assay: Growth inhibition of human NCI-ADR-RES cells incubated for 48 hrs by sulforhodamine B assay
SF-295 = assay: Growth inhibition of human SF295 cells assessed as cell growth at 100 uM incubated for 48 hrs by sulforhodamine B assay relative to control; details: SF-295, 48 h, read-out: Activity
UO-31 = assay: Growth inhibition of human UO31 cells assessed as cell growth at 0.1 uM incubated for 48 hrs by sulforhodamine B assay relative to control; details: UO-31, 48 h, read-out: Activity
NCI-H460 [4] = assay: Growth inhibition of human NCI-H460 cells assessed as cell growth at 100 uM incubated for 48 hrs by sulforhodamine B assay relative to control; details: NCI-H460, 48 h, read-out: Activity
OVCAR-5 [5] = assay: Growth inhibition of human OVCAR5 cells assessed as cell growth at 0.01 uM incubated for 48 hrs by sulforhodamine B assay relative to control; details: OVCAR-5, 48 h, read-out: Activity
EKVX [6] = assay: Growth inhibition of human EKVX cells incubated for 48 hrs by sulforhodamine B assay
TK-10 = assay: Growth inhibition of human TK10 cells incubated for 48 hrs by sulforhodamine B assay; details: TK-10, 48 h
DU-145 = assay: Growth inhibition of human DU145 cells incubated for 48 hrs by sulforhodamine B assay; details: DU-145, 48 h
OVCAR-4 [7] = assay: Growth inhibition of human OVCAR4 cells assessed as cell growth at 100 uM incubated for 48 hrs by sulforhodamine B assay relative to control; details: OVCAR-4, 48 h, read-out: Activity
HT-29 = assay: Growth inhibition of human HT-29 cells assessed as cell growth at 0.1 uM incubated for 48 hrs by sulforhodamine B assay relative to control; details: HT-29, 48 h, read-out: Activity
SNB-75 = assay: Growth inhibition of human SNB75 cells assessed as cell growth at 0.01 uM incubated for 48 hrs by sulforhodamine B assay relative to control; details: SNB-75, 48 h, read-out: Activity
SK-OV-3 = assay: Growth inhibition of human SKOV3 cells assessed as cell growth at 0.01 uM incubated for 48 hrs by sulforhodamine B assay relative to control; details: SK-OV-3, 48 h, read-out: Activity
MCF7 = assay: Growth inhibition of human MCF7 cells incubated for 48 hrs by sulforhodamine B assay; details: MCF7, 48 h
MDA-MB-435 = assay: Growth inhibition of human MDA-MB-435 cells incubated for 48 hrs by sulforhodamine B assay; details: MDA-MB-435, 48 h
HCT-15 = assay: Growth inhibition of human HCT15 cells incubated for 48 hrs by sulforhodamine B assay; details: HCT-15, 48 h
M14 [8] = assay: Growth inhibition of human M14 cells assessed as cell growth at 100 uM incubated for 48 hrs by sulforhodamine B assay relative to control; details: M14, 48 h, read-out: Activity
NCI-H322M [9] = assay: Growth inhibition of human NCI-H322M cells assessed as cell growth at 0.01 uM incubated for 48 hrs by sulforhodamine B assay relative to control; details: read-out: Activity
RPMI-8226 = assay: Growth inhibition of human RPMI8226 cells assessed as cell growth at 1 uM incubated for 48 hrs by sulforhodamine B assay relative to control; details: RPMI-8226, 48 h, read-out: Activity
NCI-H522 = assay: Growth inhibition of human NCI-H522 cells assessed as cell growth at 1 uM incubated for 48 hrs by sulforhodamine B assay relative to control; details: NCI-H522, 48 h, read-out: Activity
UACC-62 = assay: Growth inhibition of human UACC62 cells assessed as cell growth at 100 uM incubated for 48 hrs by sulforhodamine B assay relative to control; details: UACC-62, 48 h, read-out: Activity
EKVX [10] = assay: Growth inhibition of human EKVX cells assessed as cell growth at 0.1 uM incubated for 48 hrs by sulforhodamine B assay relative to control; details: read-out: Activity
NCI-H460 [11] = assay: Growth inhibition of human NCI-H460 cells incubated for 48 hrs by sulforhodamine B assay; details: NCI-H460, 48 h
A498 = assay: Growth inhibition of human A498 cells assessed as cell growth at 1 uM incubated for 48 hrs by sulforhodamine B assay relative to control; details: A498, 48 h, read-out: Activity
NCI-H460 [12] = assay: Growth inhibition of human NCI-H460 cells assessed as cell growth at 0.1 uM incubated for 48 hrs by sulforhodamine B assay relative to control; details: NCI-H460, 48 h, read-out: Activity
NCI-H322M [13] = assay: Growth inhibition of human NCI-H322M cells assessed as cell growth at 1 uM incubated for 48 hrs by sulforhodamine B assay relative to control; details: read-out: Activity
OVCAR-4 [14] = assay: Growth inhibition of human OVCAR4 cells assessed as cell growth at 0.01 uM incubated for 48 hrs by sulforhodamine B assay relative to control; details: OVCAR-4, 48 h, read-out: Activity
[15] = read-out: LC50 (the source's name)
[16] = read-out: pLC50 (the source's name) (converted)

**Q.** Which CC50 (M14 [1]; [15]) does the source give for `c1ccc2c3c([nH]c2c1)C(c1ccc(C2NCCc4c2[nH]c2ccccc42)cc1)NCC3` (racemic) here?
**A.** 4.65 µM

**Q.** What about the GI50 (M14 [1]; read-out: pGI50 (converted)) of the same compound?
**A.** 0.407 µM

**Q.** What about the CC50 (M14 [1]; [16]) of the same compound?
**A.** 4.68 µM

**Q.** What about the TGI (M14 [1]; read-out: pTGI (converted)) of the same compound?
**A.** 1.58 µM

**Q.** What about the growth at 0.1 µM (M14 [2]) of the same compound?
**A.** 94%

**Q.** What about the growth at 0.1 µM (COLO 205) of the same compound?
**A.** 94%

**Q.** What about the growth at 1 µM (OVCAR-5 [3]) of the same compound?
**A.** 85%

**Q.** What about the GI50 (NCI/ADR-RES; read-out: GI50) of the same compound?
**A.** 2.1 µM

**Q.** What about the CC50 (NCI/ADR-RES; [15]) of the same compound?
**A.** > 1 µM

**Q.** What about the TGI (NCI/ADR-RES; read-out: TGI) of the same compound?
**A.** 7.81 µM

**Q.** What about the GI50 (NCI/ADR-RES; read-out: pGI50 (converted)) of the same compound?
**A.** 2.09 µM

**Q.** What about the CC50 (NCI/ADR-RES; read-out: pLC50 (converted)) of the same compound?
**A.** > 100 µM

**Q.** And the TGI (NCI/ADR-RES; read-out: pTGI (converted))?
**A.** 7.76 µM

**Q.** What about the growth at 100 µM (SF-295) of the same compound?
**A.** 89%

**Q.** What about the growth at 0.1 µM (UO-31) of the same compound?
**A.** 74%

**Q.** What about the growth at 100 µM (NCI-H460 [4]) of the same compound?
**A.** 85%

**Q.** What about the growth at 0.01 µM (OVCAR-5 [5]) of the same compound?
**A.** 91%

**Q.** And the GI50 (EKVX [6]; read-out: GI50)?
**A.** 1.42 µM

**Q.** What about the CC50 (EKVX [6]; [15]) of the same compound?
**A.** 8.12 µM

**Q.** What about the TGI (EKVX [6]; read-out: TGI) of the same compound?
**A.** 3.39 µM

**Q.** And the GI50 (EKVX [6]; read-out: pGI50 (converted))?
**A.** 2.24 µM

**Q.** What about the CC50 (EKVX [6]; [16]) of the same compound?
**A.** 8.13 µM

**Q.** And the TGI (EKVX [6]; read-out: pTGI (converted))?
**A.** 3.39 µM

**Q.** What about the GI50 (TK-10; read-out: GI50) of the same compound?
**A.** 1.98 µM

**Q.** What about the CC50 (TK-10; [15]) of the same compound?
**A.** 8.44 µM

**Q.** And the TGI (TK-10; read-out: TGI)?
**A.** 4.09 µM

**Q.** And the GI50 (TK-10; read-out: pGI50 (converted))?
**A.** 2 µM

**Q.** And the CC50 (TK-10; [16])?
**A.** 8.51 µM

**Q.** And the TGI (TK-10; read-out: pTGI (converted))?
**A.** 4.07 µM

**Q.** And the CC50 (DU-145; [15])?
**A.** 5.16 µM

**Q.** What about the GI50 (DU-145; read-out: pGI50 (converted)) of the same compound?
**A.** 0.741 µM

**Q.** What about the CC50 (DU-145; [16]) of the same compound?
**A.** 5.13 µM

**Q.** And the TGI (DU-145; read-out: pTGI (converted))?
**A.** 2.14 µM

**Q.** What about the growth at 100 µM (OVCAR-4 [7]) of the same compound?
**A.** 93%

**Q.** What about the growth at 0.1 µM (HT-29) of the same compound?
**A.** 103%

**Q.** And the growth at 0.01 µM (SNB-75)?
**A.** 78%

**Q.** What about the growth at 0.01 µM (SK-OV-3) of the same compound?
**A.** 91%

**Q.** What about the CC50 (MCF7; [15]) of the same compound?
**A.** 6.1 µM

**Q.** What about the GI50 (MCF7; read-out: pGI50 (converted)) of the same compound?
**A.** 0.389 µM

**Q.** What about the CC50 (MCF7; [16]) of the same compound?
**A.** 6.17 µM

**Q.** And the TGI (MCF7; read-out: pTGI (converted))?
**A.** 1.74 µM

**Q.** What about the CC50 (MDA-MB-435; [15]) of the same compound?
**A.** 3.75 µM

**Q.** What about the GI50 (MDA-MB-435; read-out: pGI50 (converted)) of the same compound?
**A.** 0.363 µM

**Q.** And the CC50 (MDA-MB-435; [16])?
**A.** 3.72 µM

**Q.** What about the TGI (MDA-MB-435; read-out: pTGI (converted)) of the same compound?
**A.** 1.26 µM

**Q.** What about the GI50 (HCT-15; read-out: pGI50 (converted)) of the same compound?
**A.** 0.427 µM

**Q.** And the TGI (HCT-15; read-out: pTGI (converted))?
**A.** 1.78 µM

**Q.** What about the growth at 100 µM (M14 [8]) of the same compound?
**A.** 95%

**Q.** And the growth at 0.01 µM (NCI-H322M [9])?
**A.** 92%

**Q.** And the growth at 1 µM (RPMI-8226)?
**A.** 2%

**Q.** And the growth at 1 µM (NCI-H522)?
**A.** 16%

**Q.** What about the growth at 100 µM (UACC-62) of the same compound?
**A.** 93%

**Q.** What about the growth at 0.1 µM (EKVX [10]) of the same compound?
**A.** 90%

**Q.** And the GI50 (NCI-H460 [11]; read-out: GI50)?
**A.** 2.21 µM

**Q.** What about the CC50 (NCI-H460 [11]; [15]) of the same compound?
**A.** 9.12 µM

**Q.** What about the TGI (NCI-H460 [11]; read-out: TGI) of the same compound?
**A.** 4.49 µM

**Q.** And the GI50 (NCI-H460 [11]; read-out: pGI50 (converted))?
**A.** 0.219 µM

**Q.** What about the CC50 (NCI-H460 [11]; [16]) of the same compound?
**A.** 0.912 µM

**Q.** And the TGI (NCI-H460 [11]; read-out: pTGI (converted))?
**A.** 4.47 µM

**Q.** And the growth at 1 µM (A498)?
**A.** 65%

**Q.** And the growth at 0.1 µM (NCI-H460 [12])?
**A.** 106%

**Q.** And the growth at 1 µM (NCI-H322M [13])?
**A.** 65%

**Q.** What about the growth at 0.01 µM (OVCAR-4 [14]) of the same compound?
**A.** 88%

— ChEMBL document CHEMBL4004838, “Design and synthesis of novel phenyl -1, 4-beta-carboline-hybrid molecules as potential anticancer agents” (Eur J Med Chem, 2017)
